Measurements published in patent US11661404B2, “Prodrug compounds activated by AKR1C3 and their use for treating hyperproliferative disorders” (priority 2018, dated 2023).
Like-named read-outs stand apart in the source and are kept apart here.

Legend:
[1] = tested on: wild-type HCT116 colon cancer cells; test: Anti-proliferative IC50 under oxic and anoxic conditions; assay type: cell-based, human; details: for IC50: Homo sapiens, HCT-116; for Hypoxic Cytotoxicity Ratio (HCR): oxic vs anoxic IC50, HCT116-WT
Excerpt: PR-104A was initially designed and optimised as a hypoxia-selective cytotoxin (Patterson et al, Clinical Cancer Research, 2007, 13, 3922-3932). In the context of an AKR1C3-activated prodrug, this route of activation is considered off-mechanism and may potentially be undesirable, leading to off-target toxicities in a subject. Preferred compounds of the invention have been determined to be substantially resistant to hypoxia-dependent activation and cytotoxicity in wild-type HCT116 colon cancer cells. HCT116 cells were treated with compounds of the invention under either oxic or anoxic conditions and then their degree of anti-proliferative activity determined.
Selected compounds were evaluated for cytotoxic potential (IC50) under anoxic conditions. The same procedures as described above for Examples 9-11 were carried out in a Bactron anoxic chamber (Sheldon Manufacturing Inc) with internal 37° C. incubators where palladium catalyst scrubbed gas (90% N2, 5% H2, 5% CO2) ensured severe anoxia (<0.001% O2) in the whole chamber. All materials required (including cells) were taken into the chamber through two cycles of vacuum and gassing with 100% N2, followed by a single cycle with 5% CO2 and 5% hydrogen in nitrogen. All experimental materials were placed in the anoxic chamber at least 3 days prior to the day required for the experiment in order to remove any traces of residual O2. The medium used for the 96-well plates in the anoxic chamber consisted of α-MEM+10% (v/v) FBS+1% (v/v) additives (1 M β-D-Glucose and 20 mM 2′-Deoxycytidine).

[2] = tested on: wild-type PLC/PRF/5 hepatocellular carcinoma cells; test: Anti-proliferative IC50 assay, wild-type PLC/PRF/5; assay type: cell-based, human; details: for IC50: Homo sapiens, PLC-PRF-5
Procedure: Four hundred cells were seeded in a volume of 100 μL in each well of a 96-well plate. The cells were left in a humidified incubator (37° C., 5% CO2) for 2 hours in order to enable attachment to the surface of the wells prior to compound addition. All compounds were prepared as stocks in DMSO and stored at −80° C. Frozen stocks of compounds were thawed immediately prior to addition to cells. Working solutions of each compound were made in α-MEM+5% FBS (v/v) at 3 times the required final concentration for the top well. The final concentration of DMSO in the α-MEM solution was ensured to not exceed 1% of the total volume. 50 μL of the working solution was added to the top wells (in duplicates) and gently mixed. The solubility of some compounds precluded the working solution in α-MEM to be 3 times the desired top well concentration. […] A 3-fold serial dilution was carried out along the plate starting from the top well. The first column of wells on the plate served as blanks (containing α-MEM+FBS) and the second column served as control wells (containing cells with no compound added). Following compound addition, the plates were incubated for 4 hours in a humidified incubator (37° C., 5% CO2).
Following the 4 hour compound exposure, the 96-well plates were washed three times by aspirating media with an Immuno Washer (Nunc) and each well replaced with 150 μL of α-MEM+5% (v/v) FBS+1% (v/v) P/S. The plates were left in a humidified incubator (37° C., 5% CO2) for 5 days to enable cell growth. The cells in 96-well plates were fixed 5 days after compound exposure by adding 50 μL of a 40% (w/v) trichloroacetic acid (TCA) solution so as to obtain a final TCA concentration of 10% in each well. The plates were left in the refrigerator (4° C.) for 1 hour and subsequently rinsed 3 times in tap water. Any excess water was left to drain and the cells were stained with 50 μL of 0.4% (w/v) sulforhodamine B (SRB). The plates with the SRB stain were left in the dark for 30 minutes. Excess stain was removed from the wells by rinsing the plates 4 times in water containing 1% (v/v) acetic acid. The stain was solubilised by adding 100 μL of 10 mM unbuffered Tris (pH 10.5) to each well and the plates were left in a shaker in a dark environment at room temperature for at least 1 hour. The absorbance values of the wells were determined by an ELx 808 Absorbance Microplate Reader (Bio-Tek Instruments, Winooski, Vt., USA), with the wavelength of the measurement filter set at 490 nm and a reference filter set at 450 nm. The absorbance of the reference filter was subtracted from the measurement filter to obtain a final absorbance of λ490-450 nm. The absorbance data was analysed and IC50 values determined by the KC4 microplate data analysis software (KC4™ V3.4, Bio-Tek).
Anti-proliferative IC50 assays were repeated as described above including the addition of 3 μM SN34037, a selective and potent small molecule inhibitor of AKR1C3.
Materials and methods used are as described for Example 9.

[3] = Solubility by HPLC in water and lactate buffer; assay type: physicochemical; details: lactate buffer (pH 4), room temperature
Procedure: (§1) The solubility and stability of compound 641 was studied by HPLC in lactate buffer (pH 4) and water as the free base and the mesylate salt (641.Ms) at 0° C. and room temperature (RT). […] However, this was improved considerably by formulation as the mesylate salt, producing a solubility of greater than 100 mmol/L in lactate buffer and greater than 70 mmol/L in water. […] This stability was improved considerably by reducing the temperature of the solution to 0° C.

[4] = Stability in solution by HPLC in water and lactate buffer; assay type: physicochemical; details: room temperature
Procedure: as §1

AKR1C3 mixed MCLs = details: cited from earlier work
[5] = anoxic (<0.001% O2), read-out: HCT116-WT Anti-proliferative IC50 Anoxic
[6] = read-out: HCT116-WT Anti-proliferative IC50 Oxic
[7] = read-out: PLC/PRF/5-WT Anti-proliferative IC50
[8] = with 3 μM SN34037, read-out: PLC/PRF/5-WT +AKR1C3 Inhibitor Anti-proliferative IC50

Compound	IC50 [1, 5] [µM]	IC50 [1, 6] [µM]	more cytotoxic in PLC/PRF/5 cells than SN34454 [2] [fold]	IC50 [2, 7] [µM]	IC50 [2, 8] [µM]	Hypoxic Cytotoxicity Ratio (HCR) [1]	Solubility, Lactate Buffer, RT [3] [mmol/L]	Stability (% Parent after 24 hours), Lactate Buffer, RT ([4]; lactate buffer (pH 4)) [%]	half-life ([4]; pH 4, lactate buffer) [min]	bystander effect (literature) (AKR1C3 mixed MCLs; Foehrenbacher et al, 2013)	BEE reported in AKR1C3 mixed MCLs (AKR1C3 mixed MCLs; Silva, MSc Thesis) [%]
CN1CCN(S(=O)(=O)c2cc([N+](=O)[O-])ccc2N(CCBr)CCOS(C)(=O)=O)CC1 [Compound 602, 2-((2-bromoethyl)(2-((4-methylpiperazin-1-yl)sulfonyl)-4-nitrophenyl)amino)ethyl methanesulfonate]	3.51	4.26	94	1.19	23.7						
CN1CCN(S(=O)(=O)c2cc([N+](=O)[O-])ccc2N(CCOS(C)(=O)=O)CCOS(C)(=O)=O)CC1 [Compound 641, ((2-((4-methylpiperazin-1-yl)sulfonyl)-4-nitrophenyl)azanediyl)bis(ethane-2,1-diyl) dimethanesulfonate]	2.52	5.91		1.42	40.5	2	3.4	54.4	~1440		
CS(=O)(=O)OCCN(CCBr)c1c(C(=O)NCCO)cc([N+](=O)[O-])cc1[N+](=O)[O-] [PR-104A, 2-((2-bromoethyl)(2-((2-hydroxyethyl)-carbamoyl)-4,6-dinitrophenyl)amino)ethyl methanesulfonate, reference compound]	2.83	55.8		108	181	20				substantial bystander effect	
CN1CCN(C(=O)c2cc([N+](=O)[O-])ccc2N(CCBr)CCBr)CC1 [SN34118, reference compound]				115	174						52.7
CN1CCN(C(=O)c2cc([N+](=O)[O-])ccc2N(CCBr)CCOS(C)(=O)=O)CC1 [SN34454, reference compound]				111	131						
